Values quoted from earlier work as cited in patent publication US5565606A, “Synthesis of peptide aminoalkylamides and peptide hydrazides by the solid-phase method” (Hoechst Aktiengesellschaft, priority 1986, dated 1996).
Read-outs that look alike come from different tables or passages of the source.

What was measured:
[1] = tested on: choline content in the striatum; conditions: rats, s.c. administration of 10 μg; from EP-A 179 332
urge to groom and move = conditions: rats, from EP-A 179 332
[2] = tested on: amnesia induced by electric shock or scopolamine; conditions: s.c. administration, mice; from EP-A 179 332

Substance: benzyloxycarbonyl-Lys-Phe-OMe
- choline content in the striatum [1]: increased
- urge to groom and move (urge to groom and move; i.c.v. administration of 10 μg): cause the urge to groom and move

Substance: Met(O)-Glu-His-Phe-D-Lys-Phe-NH-(CH2)8 -NH2
- minimum effective dose, weakening of amnesia [2]: 0.03 µg/kg

Substance: benzyloxycarbonyl-D-Lys-Phe-NH-(CH2)8 -NH2.2HCl
- urge to groom and move (urge to groom and move; i.c.v. administration of 1 μg): the same action
